Assay results reported in patent US10239870B2, “Dopamine D3 receptor antagonists” (priority 2014, dated 2019).
Where a name gives a salt, the structure may show the parent alone.

Assays:
[1] = molecular target: T1, hD2 recombinant receptor (human dopamine receptor type 2, long variant, CHO-Gα16-hD2L cells) (Homo sapiens (Human), UniProt P14416); details: functional pKi; antagonism of dopamine EC80 calcium response (FLIPR)
[2] = molecular target: T1, hD2 recombinant receptor (human dopamine receptor type 2, long variant, CHO-Gα16-hD2L cells); assay: cell-based; details: D2 fpKi, functional pKi; antagonism of dopamine EC80 calcium response (FLIPR)
[3] = molecular target: hD2 recombinant receptor (human dopamine receptor type 2, long variant, CHO-Gα16-hD2L membranes) (Homo sapiens (Human), UniProt P14416); assay: biochemical

Structure (SMILES)	D2 fpKi [1]	Ki [2] [nM]	Ki [3] [nM]
Cn1c(OCCCN2CC[C@]3(C[C@H]3c3ccc(C(F)(F)F)cc3)C2)nnc1C1CCOCC1 (single isomer, unassigned) [Example 304, (1S,3S or 1R,3R)-5-(3-{[4-methyl-5-(oxan-4-yl)-4H-1,2,4-triazol-3-yl]oxy}propyl)-1-[4-(trifluoromethyl)phenyl]-5-azaspiro[2.4]heptane]	<5		
Cn1c(SCCCN2CC[C@]3(C[C@@H]3c3ccc(C(F)(F)F)cc3)C2)nnc1N1CCOCC1 (single isomer, unassigned) [Example 118, hydrochloride]		41.7	251
Cc1ncoc1-c1nnc(SCCCN2CC[C@]3(CC[C@H]3c3ccccc3)C2)n1C (single isomer, unassigned) [Example 318, (1R,4S or 1S,4R or 1S,4S or 1R,4R)-6-(3-{[4-methyl-5-(4-methyl-1,3-oxazol-5-yl)-4H-1,2,4-triazol-3-yl]sulfanyl}propyl)-1-phenyl-6-azaspiro[3.4]octane]	<5		
Cc1ncoc1-c1nnc(SCCCN2CCC[C@@]3(C[C@H]3c3ccc(C(F)(F)F)cc3)C2)n1C (single isomer, unassigned) [Example 314, (1S,3S or 1R,3R)-5-(3-{[4-methyl-5-(4-methyl-1,3-oxazol-5-yl)-4H-1,2,4-triazol-3-yl]sulfanyl}propyl)-1-[4-(trifluoromethyl)phenyl]-5-azaspiro[2.5]octane]	<5		
Cc1ncoc1-c1nnc(SCCCN2CCC[C@]3(C[C@H]3c3ccc(C(F)(F)F)cc3)C2)n1C (single isomer, unassigned) [Example 312, (1S,3R or 1R,3S)-5-(3-{[4-methyl-5-(4-methyl-1,3-oxazol-5-yl)-4H-1,2,4-triazol-3-yl]sulfanyl}propyl)-1-[4-(trifluoromethyl)phenyl]-5-azaspiro[2.5]octane]	8.26		
Cn1c(OCCCN2CC[C@@]3(C[C@@H]3c3ccc(C(F)(F)F)cc3)C2)nnc1C1CCOCC1 (single isomer, unassigned) [Example 305, (1R,3R or 1S,3S)-5-(3-{[4-methyl-5-(oxan-4-yl)-4H-1,2,4-triazol-3-yl]oxy}-propyl)-1-[4-(trifluoromethyl)phenyl]-5-azaspiro[2.4]heptane]	<5		
Cn1c(SCCCN2CC[C@]3(C[C@@H]3c3ccc(C(F)(F)F)cc3)C2)nnc1-c1ccc(Oc2ccccc2)nc1 (single isomer, unassigned) [Example 265]			589
Cn1c(SCCCN2CC[C@]3(C[C@@H]3c3ccc(C(F)(F)F)cc3)C2)nnc1-c1cnc(-c2cccnc2)o1 (single isomer, unassigned) [Example 263]			589
Cn1c(SCCCN2CC[C@@]3(C[C@H]3c3ccc(C(F)(F)F)cc3F)C2)nnc1-c1ccc(C(N)=O)nc1 (single isomer, unassigned) [Example 186]			4900
Cc1cccnc1-c1nnc(SCCCN2CC[C@]3(C[C@@H]3c3ccc(C(F)(F)F)cc3)C2)n1C (single isomer, unassigned) [Example 170, dihydrochloride]			1410
Cc1nccnc1-c1nnc(SCCCN2CC[C@]3(C[C@@H]3c3ccc(C(F)(F)F)cc3)C2)n1C (single isomer, unassigned) [Example 227, hydrochloride]			575
Cn1c(SCCCN2CC[C@]3(C[C@@H]3c3ccc(C(F)(F)F)cc3)C2)nnc1-c1ccnc(C(N)=O)c1 (single isomer, unassigned) [Example 191]			513
Cn1c(SCCCN2CC[C@]3(C[C@@H]3c3ccc(C(F)(F)F)cc3)C2)nnc1-c1ccn2cnnc2c1 (single isomer, unassigned) [Example 269]			1000
